According to patent US11866720B2, “Transgenic or non-transgenic plants with mutated protoporphyrinogen oxidase having increased tolerance to herbicides” (priority 2013, dated 2024):
Where “and” joins values, the source holds several entries; their conditions need not be identical. Identical values can stand only once.

Tested on: transgenic Arabidopsis thaliana plants expressing wildtype or mutated PPO
Assay: Greenhouse tolerance test of transgenic T1 Arabidopsis plants (phytotox / injury rating 0-100)
Assay type: in vivo
Conditions: for Plant growth injury, scale 0-100, 100 is 100% damage: +1% MSO
[1] = non-transgenic Arabidopsis, POST, 7 DAT, 75 g ai/ha
[2] = non-transgenic Arabidopsis, POST, 7 DAT, 150 g ai/ha
[3] = non-transgenic Arabidopsis, POST, 7 DAT, 300 g ai/ha
[4] = Ø F420V 1, POST, 7 DAT, 75 g ai/ha
[5] = Ø F420V 1, POST, 7 DAT, 150 g ai/ha
[6] = Ø F420V 1, POST, 7 DAT, 300 g ai/ha
[7] = Ø F420V 2, POST, 7 DAT, 75 g ai/ha
[8] = Ø F420V 2, POST, 7 DAT, 150 g ai/ha
[9] = Ø F420V 2, POST, 7 DAT, 300 g ai/ha
[10] = Ø F420V 3, POST, 7 DAT, 75 g ai/ha
[11] = Ø F420V 3, POST, 7 DAT, 150 g ai/ha
[12] = Ø F420V 3, POST, 7 DAT, 300 g ai/ha
[13] = Ø R128A, F420V 1, POST, 7 DAT, 75 g ai/ha
[14] = Ø R128A, F420V 1, POST, 7 DAT, 150 g ai/ha
[15] = Ø R128A, F420V 1, POST, 7 DAT, 300 g ai/ha
[16] = Ø R128A, F420V 1 to 3, 75 g ai/ha
[17] = Ø R128A, F420V 1 to 3, 150 g ai/ha
[18] = Ø R128A, F420V 1 to 3, 300 g ai/ha
[19] = Ø R128A, F420V 2, POST, 7 DAT, 75 g ai/ha
[20] = Ø R128A, F420V 2, POST, 7 DAT, 150 g ai/ha
[21] = Ø R128A, F420V 2, POST, 7 DAT, 300 g ai/ha
[22] = Ø R128A, F420V 3, POST, 7 DAT, 75 g ai/ha
[23] = Ø R128A, F420V 3, POST, 7 DAT, 150 g ai/ha
[24] = Ø R128A, F420V 3, POST, 7 DAT, 300 g ai/ha
[25] = Ø non-transgenic Arabidopsis, POST, 7 DAT, 75 g ai/ha
[26] = Ø non-transgenic Arabidopsis, POST, 7 DAT, 150 g ai/ha
[27] = Ø non-transgenic Arabidopsis, POST, 7 DAT, 300 g ai/ha

C#CCN1C(=O)C(F)(F)Oc2cc(F)c(-n3c(=O)n(C)c(=S)n(C)c3=O)cc21
Injury Rating 0-100% (0 = no injury, 100 = total control) (Line 2, F420V, SEQ_ID 2 & 4, 19 DAT, 150 g/Ha + 1% MSO): 90% and 85% and 45%
Plant growth injury, scale 0-100, 100 is 100% damage [1]: 98%
Plant growth injury, scale 0-100, 100 is 100% damage [2]: 98%
Plant growth injury, scale 0-100, 100 is 100% damage [3]: 98%
Plant growth injury, scale 0-100, 100 is 100% damage [4]: 17%
Plant growth injury, scale 0-100, 100 is 100% damage [5]: 28%
Plant growth injury, scale 0-100, 100 is 100% damage [6]: 36%
Plant growth injury, scale 0-100, 100 is 100% damage (Ø F420V 1 to 3, 75 g ai/ha): 11%
Plant growth injury, scale 0-100, 100 is 100% damage (Ø F420V 1 to 3, 150 g ai/ha): 17%
Plant growth injury, scale 0-100, 100 is 100% damage (Ø F420V 1 to 3, 300 g ai/ha): 26%
Plant growth injury, scale 0-100, 100 is 100% damage [7]: 9%
Plant growth injury, scale 0-100, 100 is 100% damage [8]: 11%
Plant growth injury, scale 0-100, 100 is 100% damage [9]: 22%
Plant growth injury, scale 0-100, 100 is 100% damage [10]: 8%
Plant growth injury, scale 0-100, 100 is 100% damage [11]: 12%
Plant growth injury, scale 0-100, 100 is 100% damage [12]: 22%
Plant growth injury, scale 0-100, 100 is 100% damage [13]: 18%
Plant growth injury, scale 0-100, 100 is 100% damage [14]: 23%
Plant growth injury, scale 0-100, 100 is 100% damage [15]: 26%
Plant growth injury, scale 0-100, 100 is 100% damage [16]: 18%
Plant growth injury, scale 0-100, 100 is 100% damage [17]: 24%
Plant growth injury, scale 0-100, 100 is 100% damage [18]: 32%
Plant growth injury, scale 0-100, 100 is 100% damage [19]: 24%
Plant growth injury, scale 0-100, 100 is 100% damage [20]: 20%
Plant growth injury, scale 0-100, 100 is 100% damage [21]: 33%
Plant growth injury, scale 0-100, 100 is 100% damage [22]: 11%
Plant growth injury, scale 0-100, 100 is 100% damage [23]: 30%
Plant growth injury, scale 0-100, 100 is 100% damage [24]: 36%
Plant growth injury, scale 0-100, 100 is 100% damage [25]: 98%
Plant growth injury, scale 0-100, 100 is 100% damage [26]: 98%
Plant growth injury, scale 0-100, 100 is 100% damage [27]: 98%

CC(C)N(C)S(=O)(=O)NC(=O)c1cc(-n2c(=O)cc(C(F)(F)F)n(C)c2=O)c(F)cc1Cl [Saflufenacil, saflufenacil]
Plant growth injury, scale 0-100, 100 is 100% damage [1]: 98%
Plant growth injury, scale 0-100, 100 is 100% damage [2]: 98%
Plant growth injury, scale 0-100, 100 is 100% damage [3]: 98%
Plant growth injury, scale 0-100, 100 is 100% damage [4]: 39%
Plant growth injury, scale 0-100, 100 is 100% damage [5]: 60%
Plant growth injury, scale 0-100, 100 is 100% damage [6]: 77%
Plant growth injury, scale 0-100, 100 is 100% damage (Ø F420V 1 to 3, 75 g ai/ha): 42%
Plant growth injury, scale 0-100, 100 is 100% damage (Ø F420V 1 to 3, 150 g ai/ha): 60%
Plant growth injury, scale 0-100, 100 is 100% damage (Ø F420V 1 to 3, 300 g ai/ha): 76%
Plant growth injury, scale 0-100, 100 is 100% damage [7]: 36%
Plant growth injury, scale 0-100, 100 is 100% damage [8]: 55%
Plant growth injury, scale 0-100, 100 is 100% damage [9]: 72%
Plant growth injury, scale 0-100, 100 is 100% damage [10]: 51%
Plant growth injury, scale 0-100, 100 is 100% damage [11]: 66%
Plant growth injury, scale 0-100, 100 is 100% damage [12]: 78%
Plant growth injury, scale 0-100, 100 is 100% damage [13]: 16%
Plant growth injury, scale 0-100, 100 is 100% damage [14]: 18%
Plant growth injury, scale 0-100, 100 is 100% damage [15]: 22%
Plant growth injury, scale 0-100, 100 is 100% damage [16]: 18%
Plant growth injury, scale 0-100, 100 is 100% damage [17]: 20%
Plant growth injury, scale 0-100, 100 is 100% damage [18]: 21%
Plant growth injury, scale 0-100, 100 is 100% damage [19]: 22%
Plant growth injury, scale 0-100, 100 is 100% damage [20]: 24%
Plant growth injury, scale 0-100, 100 is 100% damage [21]: 22%
Plant growth injury, scale 0-100, 100 is 100% damage [22]: 18%
Plant growth injury, scale 0-100, 100 is 100% damage [23]: 18%
Plant growth injury, scale 0-100, 100 is 100% damage [24]: 19%
Plant growth injury, scale 0-100, 100 is 100% damage [25]: 98%
Plant growth injury, scale 0-100, 100 is 100% damage [26]: 98%
Plant growth injury, scale 0-100, 100 is 100% damage [27]: 98%
